In patent publication US20250280696A1, “FORMULATIONS AND USES THEREOF IN OPTOELECTRONIC FIELD” (Zhejiang Brilliant Optoelectronic Technology Co.,Ltd., priority 2022, published 2025):

Assays:
Format in all cases: physicochemical
[1] = Absorption and emission spectrum in spin-coated film; details: film vs toluene solution
Description: The Absorption and emission spectrums of the compounds in the film were determined as follows: • 1. The compound with a certain concentration in the toluene was prepared. • 2. The prepared toluene solution was dropped onto a clean glass substrate. • 3. Spin-coating, and then heating at the 80° C. for 1 min. • 4. The absorption spectrum of the film was measured by using an ultraviolet-visible spectrophotometer (Puxi T9s) to obtain the absorption peak wavelength. • 5. The emission spectrum of the film was measured by using a fluorescent spectroscope (Hitachi, F-4700 FL Spectrophotometer) to obtain the emission peak wavelength.
(§1) The extinction coefficients of the compounds and their absorption and emission peaks in the solution and film are shown in Table 3.

[2] = Absorption spectrum, emission spectrum and extinction coefficient in toluene solution; details: at maximum absorption peak
Description: The extinction coefficients of the compounds and their absorption and emission spectrums in the solution were determined as follows: • 1. The compound with a certain amount of substance concentration in the toluene was prepared in a volumetric flask. • 2. The absorption spectrum of the solution was measured by using an ultraviolet-visible spectrophotometer (Puxi T9s) to obtain the absorption peak wavelength. • 3. The absorbance of the maximum absorption peak divided by the amount of substance concentration is the molar extinction coefficient of the compound. • 4. The emission spectrum of the solution was measured by using a fluorescent spectroscope (Hitachi, F-4700 FL Spectrophotometer) to obtain the emission peak wavelength.
as §1

[3] = Solubility of compounds in toluene; details: per 100 g toluene
Description: The solubility of the compounds in the toluene were determined as follows: • 1. 1000 mg toluene was placed in the transparent glass sample bottle. • 2. A certain mass of the compound was added into the toluene, and oscillated until completely dissolved. • 3. After the compound was completely dissolved, a certain mass of the compound was further added into the toluene, and oscillated. • 4. The above steps were repeated until the compound wasn't dissolved any more. • 5. The total mass of the compound added was recorded and the solubility was obtained by calculation.

[4] = UV stability of compounds in toluene (absorbance decay, t80); details: UV LEDs 365 nm & 255 nm, 12 cm, time until absorbance decayed to 80% of initial value
Description: The UV stability of the compounds were tested as follows:
The compound was dissolved in the toluene with a concentration of 1×10^5 mol/L. 3 mL solution was added to the cuvette with a lid and the lid was screwed on tightly, then the cuvette was placed in the ultraviolet-visible spectrophotometer to test the absorption spectrum, the absorbance of the maximum absorption peak was recorded as the initial value. The cuvette was placed at a distance of 12 cm from the UV LEDs (365 nm & 255 nm), irradiated for a period and tested its absorption spectrum, then continued to be irradiated after the test, and repeated until the absorbance decayed to 80% of its initial value, the time was recorded as t80.

CC1CCC(C(C)C)C(Oc2ccc(-c3cc(C(C)C)ccc3N(c3cc(F)c(F)c(F)c3)c3cc(N(c4cc(F)c(F)c(F)c4)c4ccc(C(C)C)cc4-c4ccc(OC5CC(C)CCC5C(C)C)cc4)c4ccc5c(N(c6cc(F)c(F)c(F)c6)c6ccc(C(C)C)cc6-c6ccc(OC7CC(C)CCC7C(C)C)cc6)cc(N(c6cc(F)c(F)c(F)c6)c6ccc(C(C)C)cc6-c6ccc(OC7CC(C)CCC7C(C)C)cc6)c6ccc3c4c65)cc2)C1 (stereo not drawn) [Compound 23]
Red shift of the spectrum in the film relative to the solution [1]: very small red shift
Molar extinction coefficient of the toluene solution [2]: 68000 L/mol
Solubilities(/100 g toluene) [3]: >10 g
Times t80 [4]: 405 min

CCCCCCCCc1ccc(-c2cc(OC)ccc2N(c2cc(F)c(F)c(F)c2)c2cc(N(c3cc(F)c(F)c(F)c3)c3ccc(OC)cc3-c3ccc(CCCCCCCC)cc3)c3ccc4c(N(c5cc(F)c(F)c(F)c5)c5ccc(OC)cc5-c5ccc(CCCCCCCC)cc5)cc(N(c5cc(F)c(F)c(F)c5)c5ccc(OC)cc5-c5ccc(CCCCCCCC)cc5)c5ccc2c3c54)cc1 [Compound 24]
Red shift of the spectrum in the film relative to the solution [1]: very small red shift
Molar extinction coefficient of the toluene solution [2]: 70000 L/mol
Solubilities(/100 g toluene) [3]: >10 g
Times t80 [4]: 352 min

CCCCCCCCc1ccc(N(c2ccc(C(C)C)cc2-c2cc(F)c(F)c(F)c2)c2cc(N(c3ccc(CCCCCCCC)cc3)c3ccc(C(C)C)cc3-c3cc(F)c(F)c(F)c3)c3ccc4c(N(c5ccc(CCCCCCCC)cc5)c5ccc(C(C)C)cc5-c5cc(F)c(F)c(F)c5)cc(N(c5ccc(CCCCCCCC)cc5)c5ccc(C(C)C)cc5-c5cc(F)c(F)c(F)c5)c5ccc2c3c54)cc1 [Compound 26]
Red shift of the spectrum in the film relative to the solution [1]: very small red shift
Molar extinction coefficient of the toluene solution [2]: 55000 L/mol
Solubilities(/100 g toluene) [3]: >10 g
Times t80 [4]: 486 min
